According to patent publication US20250188457A1, “COMPOSITIONS AND METHODS FOR THE TREATMENT OF GLIOBLASTOMA BY INHIBITION OF THE TFPI2-CD51-STAT6 SIGNALING AXIS” (Northwestern University, priority 2023, published 2025):

Columns and labels:
005 GSC and CT2A tumors = assay: Survival of C57BL/6 mice implanted with 005 GSCs or CT2A cells; type: in vivo, mouse; settings: for survival of mice bearing 005 GSC and CT2A tumors, combination with anti-PD1 therapy: anti-PD1 10 mg/kg i.p. on days 11, 14 and 17, MK-0429 30 mg/kg or AS1517499 10 mg/kg i.p. every other day
Procedure: (§1) Female C57BL/6 (#0000664), nude mice (#007850), and B6.12952(C)-Stat6tm1Gru/J mice (STAT6-KO; #005977) at 6 weeks of age were purchased from the Jackson Laboratory. Mice were grouped by 5 animals and maintained in a pathogen-free IVC System (San Diego, CA) for a week before the experiment. All animal experiments were performed with the approval of the Institutional Animal Care and Use Committee (IACUC) at Northwestern University. The intracranial xenograft tumor models were established (Refs. 11, 61; incorporated by reference in their entireties). Ketamine (100 mg/kg) and xylazine (20 mg/kg) were used for anesthetizing mice through intraperitoneal injection. Then a dental drill was used to open a small hole in the skull 1.2 mm anterior and 3.0 mm lateral to the bregma. A total volume of […] cells in FBS-free DMEM was injected into the right caudate nucleus 3 mm below the surface of the brain using a […] Hamilton syringe with an unbeveled 30-gauge needle. Total three doses of 20 mg/kg meloxicam were administrated before and after surgery through subcutaneous injection. After cancer cell implantation, mice were monitored for recording survival. Mice with neurological deficits or moribund appearance were sacrificed. Following the transcardiac perfusion with PBS and 4% paraformaldehyde (PFA), brains were removed and fixed in 4% PFA, and were processed for paraffin-embedded blocks or cryosectioning.

GSC23 and GSC262 cells [1] = assay: CFSE proliferation analysis of GSCs; type: cell-based, human; settings: GSC23 and GSC262 with TFPI2 OE plasmid; JNK-IN-8 10 nM, WP1066 20 nM
Procedure: Cell proliferation was assessed using the CellTrace CFSE Cell Proliferation Kit (Invitrogen, #C34554). 10^6 cells were harvested and incubated with CFSE working solution (1:1000) for 20 min at 37° C. The staining was stopped by adding complete cell culture media. After washing, cells were continuously cultured for 5 days in the dark. At the end of the incubation, cells were collected by spinning down at 1500 rpm for 5 min. The cell pellet was resuspended in cell staining buffer for flow cytometry analysis. The percentage of CFSE positive peaks over the undivided peak (generation 0) was analyzed using the ImageJ software.

GSC23 tumor = assay: Survival of nude mice implanted with GSC23 expressing TFPI2 overexpression plasmid; type: in vivo, mouse; settings: 30 mg/kg body weight, i.p., every day, on day 7
Procedure: as §1, with “Following the transcardiac perfusion with PBS and 4% paraformaldehyde (PFA), brains were removed and fixed in 4% PFA, and were processed for paraffin-embedded blocks or cryosectioning.” left out

GSC23 and GSC262 cells [2] = assay: Apoptosis analysis of GSCs (Apotracker/PI flow cytometry); type: cell-based, human; settings: GSC23 and GSC262 with TFPI2 OE plasmid; JNK-IN-8 10 nM, WP1066 20 nM
Procedure: Cell apoptosis was evaluated using Apotracker Green (BioLegend, #427402) (Ref. 78; incorporated by reference in its entirety). 10^5 cells were collected and stained with Apotracker (1:10 dilution) in […] cell staining buffer. […] propidium iodide (PI) solution (BioLegend, #421301) was added for labeling late apoptotic and necrotic cells. After washing with PBS twice, FITC and PI signals were analyzed in BD FACSymphony flow cytometer.

STAT3 = assay: Immunoblot for P-STAT3 and STAT3 in GSCs; type: cell-based, human; settings: GSC23 and GSC262, TFPI2 OE or TFPI2 recombinant protein 20 ng/ml; JNK-IN-8 10 nM
Procedure: (§2) The protein expression in cells was determined by western blotting analysis (Ref. 61; incorporated by reference in its entirety). Cells were homogenized in RIPA lysis buffer containing phosphatase/protease cocktail inhibitors (Cell Signaling Technology, #5870). The protein concentration was determined by BCA Protein Assay Kit (Thermo Fisher Scientific, #P123225). Protein solution was mixed with the Leammli sample buffer and heated at 95° C. before loading to SurePAGE gels (GenScript, #M00653). The gels were run at a constant voltage of 80 V and then transferred to 0.2 μm nitrocellulose membrane (Bio-Rad, #1620112) using the Trans-Blot Turbo system (Bio-Rad) with a preprogrammed standard protocol for 30 min. Nitrocellulose membrane was incubated with 5% dry milk to block any unspecific staining. […]

GSC23 and GSC262 cells [3] = assay: Tumorsphere formation assay (GSC self-renewal); type: cell-based, human; settings: GSC23 and GSC262 with TFPI2 OE plasmid; JNK-IN-8 10 nM, WP1066 20 nM
Procedure: The tumorsphere formation assay was performed (Ref. 79; incorporated by reference in its entirety). GSCs were treated with different concentrations of recombinant TFPI2 protein for 24 hrs with or without inhibition of JNK or STAT3, or modified with TFPI21 KO, knockdown or overexpression. After treatment or genetic modifications, cells were centrifuged at 1500 rpm for 5 min and resuspended in the plain cell culture media without additional supplements. Cells were then seeded into a 96-wells plate at 100 cells/well. The number of tumorspheres in each well was imaged and quantified after 10 days.

JNK = assay: Immunoblot for P-JNK and JNK in GSCs; type: cell-based, human; settings: GSC23 and GSC262, TFPI2 OE or TFPI2 recombinant protein 20 ng/ml; WP1066 20 nM
Procedure: as §2

Compound | survival of mice implanted with 005 GSCs and CT2A cells, inhibitor alone (005 GSC and CT2A tumors; MK-0429 30 mg/kg or AS1517499 10 mg/kg, i.p., every other day, on day 7, Cilengitide dose not given) | survival of mice bearing 005 GSC and CT2A tumors, combination with anti-PD1 therapy (005 GSC and CT2A tumors) | proliferation effect of increasing cellular TFPI2 in GSCs (GSC23 and GSC262 cells [1]) | shortening of survival by TFPI2 overexpression in GSC23 tumor-bearing mice (GSC23 tumor) | apoptotic effect of increasing cellular TFPI2 in GSCs (GSC23 and GSC262 cells [2]) | TFPI2-induced STAT3 activation (P-STAT3) (STAT3) | self-renewal effect of increasing cellular TFPI2 in GSCs (tumorspheres) (GSC23 and GSC262 cells [3]) | TFPI2-induced JNK activation (P-JNK) (JNK)
CC(C)[C@H]1C(=O)N[C@@H](CCCN=C(N)N)C(=O)NCC(=O)N[C@@H](CC(=O)O)C(=O)N[C@H](Cc2ccccc2)C(=O)N1C [Cilengitide] | significantly extended the survival | enhanced the efficacy | – | – | – | – | – | –
Cc1cc(NC(=O)c2cccc(NC(=O)/C=C/CN(C)C)c2)ccc1Nc1nccc(-c2cccnc2)n1 [JNK-IN-8] | – | – | negated | abolished | negated | blocked | negated | –
COc1ccc([C@H](CC(=O)O)N2CCN(CCCc3ccc4c(n3)NCCC4)C2=O)cn1 [MK-0429] | – | synergized | – | – | – | – | – | –
C[C@H](NC(=O)/C(C#N)=C/c1cccc(Br)n1)c1ccccc1 [WP1066] | – | – | negated | abolished | negated | – | negated | no effect
